Laboratory results reported in PMC3114339 (Diabetes Care, 2011).

System: type 2 diabetic subjects
Experiment: Euglycemic glucose clamp for 32 h after s.c. injection of basal insulin
Assay type: in vivo, human

detemir
plasma free fatty acid concentrations higher with detemir compared with glargine (throughout the 32-h clamp study, P < 0.001): +26% | plasma free fatty acid concentrations higher with detemir compared with NPH (throughout the 32-h clamp study, P = 0.003): +15%

glargine
interquartile range in time of duration of action (plasma glucose >136 mg/dL) (32-h clamp, statistical significance achieved only versus detemir): smaller interquartile range in time of duration of action than NPH and detemir | mean GIR AUC0–32 h greater with glargine than NPH (32-h euglycemic clamp, 0.4 units/kg s.c., relative difference versus NPH): 31% | mean GIR AUC0–32 h greater with glargine than detemir (32-h euglycemic clamp, 0.4 units/kg s.c., relative difference versus detemir): 42%
